# Test results taken from patent publication US9393271B2, “GHRH agonists for islet cell transplantation and function and the treatment of diabetes” (UNIVERSITY OF MIAMI, priority 2012, dated 2016).
# Non-standard residues stand in square brackets, D forms with d. Residues, ends and D or L forms follow the SMILES beside them. NMeY = CN[C@@H](Cc1ccc(O)cc1)C(=O)O; Nle = CCCC[C@H](N)C(=O)O; Orn = NCCC[C@H](N)C(=O)O; Abu = CC[C@H](N)C(=O)O
# Legend:
# GH level [1] = assay: In vivo endocrine activity (GH release), intravenous administration; conditions: rat
# Experimental: In vivo tests on endocrine activity of new GHRH agonists (Intravenous administration). For in vivo tests based on intravenous administration, adult male Sprague-Dawley rats were anesthetized with pentobarbital (6 mg/100/g, b.w.), and GHRH agonists were injected 20 minutes after the injection of pentobarbital. Blood samples were taken from the jugular vein (pretreated level), immediately after hGHRH(1-29)NH2 injection (as a control) or after hGHRH analogs injection. Blood samples were taken from the jugular vein 5, 15 and 30 minutes after the injection. The blood samples were centrifuged, plasma was removed and the GH level was measured by ELISA.
# rat islets = assay: Viability of rat islets alone or in co-culture with adrenal cells; assay type: cell-based; conditions: rat islets alone, 10^-8 M, 24 hrs
# Experimental: Pancreatic islets were isolated from female Wistar rats as described in prior art, and according to guidelines established by the University Institutional Animal Care and Use Committee. Briefly, animals were anesthetized by 3% isoflurane and digestion solution (Collagenase V; Sigma-Aldrich) was injected via the pancreatic duct. Islets were isolated by discontinuous Ficoll gradient centrifugation (Sigma-Aldrich). Isolated islets were cultured in RPMI 1640 (PAA) supplemented with 10% FBS at 37° C. in a 5% CO2 atmosphere prior to further experimentation. Yield and purity of islets were determined by microscopic sizing after staining with dithizone (Sigma-Aldrich) as previously described.
# Female Wistar rats were used as adrenal donors according to guidelines established by the University Institutional Animal Care and Use Committee. After euthanization, the adrenal glands were rapidly removed and kept in PBS at 4° C. After removal of adipose tissue, the capsule was removed. The tissue was then incubated at 37° C. in PBS containing collagenase type II (2.0 mg/ml; Sigma-Aldrich) and DNase (0.15 mg/ml; Sigma-Aldrich). After incubation for 30 min, the digestion was stopped by adding cold PBS. […]
# Isolated rat islets and co-cultured islets were treated with P-27403 at a concentration of 10^−8 M or with 0.1% DMSO as control for 24 hrs, and then analyzed for viability. […]
# GH level [2] = assay: In vivo endocrine activity (GH release), subcutaneous administration; conditions: rat, s.c.
# Experimental: Subcutaneous Administration. Adult male rats were used and anesthetized with pentobarbital (6 mg/100 g, b.w.), by i.p. injection. […] Blood samples were taken from the jugular vein 5, 15 and/or 30 minutes after the injection. The blood samples were centrifuged, plasma was removed and the GH level was measured by ELISA. The results are summarized in terms of potency in Table 9.
# INS-1 cells [3] = assay: INS-1 proliferation (BrdU Cell Proliferation Assay); assay type: cell-based, rat
# Experimental: For determination of proliferation activity, BrdU incorporation was performed in INS-1 cells following exposure to P-27403. Proliferation was measured using BrdU Cell Proliferation Assay (Millipore) following the manufacturer's description. The maximal enhancement in proliferation rate of 16% compared to control was found at 10^−8 M concentration of P-27403 (FIG. 1C).
# INS-1 cells were grown for 72 h before experimentation. Cells were treated with GHRH agonists MR356, MR367, and MR403 at different concentrations or with 0.1% (vol/vol) DMSO as control for 24 h, 48 h and 72 h. Proliferation was measured using BrdU Cell Proliferation Assay (Millipore) following the manufacturer's description.
# INS-1 cells [4] = assay: INS-1 cell viability (CellTiter 96 AQueous One Solution); assay type: cell-based, rat; conditions: 10^-7 to 10^-9 M, 24 hrs
# Experimental: (§1) Rat insulinoma cells (INS-1) were cultured in RPMI Medium 1640 (PAA) containing 2 mM L-glutamine, 10% FBS, 1 mM Na-pyruvate, 50 μM 2-mercaptoethanol, and 100 U/mL penicillin/streptomycin (Gibco) at 37° C. in a 5% CO2 humidified incubator. Medium was exchanged every second day and cells were passaged once per week. INS-1 cells were treated with the GHRH agonist P-27403 at concentrations from 10^−7 to 10^−9 M for 24 hrs and was analyzed for viability and apoptosis. Viability was assessed using CellTiter 96 AQueous One Solution Cell Proliferation Assay (Promega) according to the manufacturer's instructions. Apoptosis was assayed by determination of caspase 3/7 activity using Caspase-Glo 3/7 Assay (Promega) according to manufacturer's instructions.
# INS-1 cells were grown for 72 hours before experimentation. Cells were treated with different GHRH agonist peptides (MR-356/P-20356, MR-361/P-20361, MR-367/P-20367, MR-403/P-27403, MR-409/P-27409, MR-502/P-25502) at different concentrations (10^−6-10^−10 M) or with 0.1% (vol/vol) DMSO as control for 24 h, 48 h and 72 h. Viability was assessed using CellTiter 96 AQueous One Solution Cell Proliferation Assay (Promega) according to the manufacturer's instructions. Treatment of INS-1 cells with GHRH agonist peptides for 72 h improved cell viability. Cell viability was expressed as percent of cells treated with control DMSO (FIG. 7).
# INS-1 cells [5] = assay: INS-1 apoptosis, caspase 3/7 activity (Caspase-Glo 3/7); assay type: cell-based, rat; conditions: 24 hrs
# Experimental: as §1
# INS-1 cells were grown for 72 h before experimentation. Cells were treated with various GHRH agonist peptides at different concentrations or with 0.1% (vol/vol) DMSO as control for 24 h, 48 h and 72 h. Apoptosis was assayed by determination of caspase 3/7 activity using Caspase-Glo 3/7 Assay (Promega) according to the manufacturer's instructions.
# [6] = target: T1, GHRH receptor (human pituitary membrane homogenates) (Homo sapiens, UniProt Q02643); assay: GHRH receptor binding, ligand competition with 125I-labeled JV-1-42 (Table 7); design: Normal human pituitaries were purchased from the National Hormone and Peptide Program; tissue National Hormone and Peptide Program (A. F. Parlow, Harbor-UCLA Medical Center, Torrance, Calif.); host or cells: normal human pituitary, membrane fraction / homogenate; conditions: JI-38 = 1
# T1 sequence (Q02643 23-423): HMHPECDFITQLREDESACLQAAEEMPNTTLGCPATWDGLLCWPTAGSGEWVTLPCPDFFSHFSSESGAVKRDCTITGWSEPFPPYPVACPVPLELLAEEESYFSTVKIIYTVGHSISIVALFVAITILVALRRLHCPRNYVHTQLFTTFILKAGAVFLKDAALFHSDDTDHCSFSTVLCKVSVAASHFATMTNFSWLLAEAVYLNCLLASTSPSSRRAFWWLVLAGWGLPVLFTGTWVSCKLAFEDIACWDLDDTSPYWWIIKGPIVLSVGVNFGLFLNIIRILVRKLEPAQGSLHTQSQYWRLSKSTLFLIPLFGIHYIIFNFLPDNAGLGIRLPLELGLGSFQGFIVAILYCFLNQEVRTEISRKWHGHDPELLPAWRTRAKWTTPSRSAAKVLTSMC
compound,measurement,setting,value
"CCCC[C@H](NC(=O)[C@@H](NC(=O)[C@H](CC(=O)O)NC(=O)[C@H](CCC(N)=O)NC(=O)[C@H](CC(C)C)NC(=O)[C@H](CC(C)C)NC(=O)[C@H](CCCN)NC(=O)[C@H](CCCNC(=N)N)NC(=O)[C@H](C)NC(=O)[C@H](CO)NC(=O)[C@H](CC(C)C)NC(=O)[C@H](CCC(N)=O)NC(=O)[C@H](CC)NC(=O)[C@H](CC(C)C)NC(=O)[C@@H](NC(=O)[C@H](CCCN)NC(=O)[C@H](CCCNC(=N)N)NC(=O)[C@H](Cc1ccc(O)cc1)NC(=O)[C@H](CO)NC(=O)[C@H](CCC(N)=O)NC(=O)[C@@H](NC(=O)[C@H](Cc1ccccc1)NC(=O)[C@@H](NC(=O)[C@H](C)NC(=O)[C@H](CC(=O)O)NC(=O)[C@@H](C)NC(=O)[C@H](Cc1ccc(O)cc1)NC)[C@@H](C)CC)[C@@H](C)O)C(C)C)[C@@H](C)CC)C(=O)N[C@@H](CC(=O)O)C(=O)N[C@@H](CCCNC(=N)N)C(=O)NC [Peptide P-27403, [N—Me-Tyr^1, D-Ala^2, Gln^8, Orn^12, Abu^15, Orn^21, Nle^27, Asp^28]hGHRH(1-29)NH—CH3] (H-[NMeY][dA]DAIFTQSYR[Orn]VL[Abu]QLSAR[Orn]LLQDI[Nle]DR-NHMe)",Stimulation of growth hormone levels after i.v. administration (comparison in words),GH level [1],most potent
same,Islet viability,rat islets,increase in viability
same,Islet viability,rat islets; listed as MR403,increase of viability
same,Stimulation of growth hormone levels after s.c. administration (comparison in words),GH level [2],stimulated greater growth hormone levels than hGHRH or JI-38
same,Enhancement in proliferation rate compared to control,"INS-1 cells [3]; 10^-8 M, 24 hrs",16%
same,Cell proliferation compared to control,"INS-1 cells [3]; different concentrations, 24 h, 48 h and 72 h",significantly induced cell proliferation
same,Viability compared to control,INS-1 cells [4],increased viability at all concentrations used
same,"Apoptosis, caspase 3/7 activity",INS-1 cells [5]; 10^-7 to 10^-9 M,overall reduction of apoptosis
same,Reduction of apoptosis (caspases 3/7 activity),INS-1 cells [5]; 10^-8 M,14%
same,Reduction of apoptosis (caspases 3/7 activity),INS-1 cells [5]; 10^-9 M,18%
same,Relative affinitiy (Binding potency) vs JI-38,[6],27.19
